Test results reported in patent US9617530B2, “Acetyl-CoA carboxylase herbicide resistant sorghum” (Kansas State University Research Foundation, Inc., priority 2007, dated 2017).

Experiments:
[1] = test system: Tx2783, an herbicide susceptible elite sorghum genotype; experiment: Greenhouse herbicide selection, spray on susceptible elite check; type: in vivo, Sorghum bicolor (L.) Moench
From the text: Seeds of 83 wild sorghum populations from Bolivia were planted in a greenhouse for comparison with Tx2783, an herbicide susceptible elite sorghum genotype. Wild sorghum genotypes were planted in flats containing MetroMix 360 potting soil (Sun Gro) and greenhouse grown. Tx2783 was planted with the wild accessions in each flat for comparison. In one selection using clethodim, plants were sprayed with 0.09 lb ai clethodim acre^−1 at 18 days after planting. […] In one selection using fluoazifop-P, flats with Tx2783 and wild accessions were sprayed with a rate of 0.12 lb ai fluazifop-P acre^−1 at 18 days after planting and with 0.36 lb ai fluazifop-P acre^−1 at 32 days after planting. […] In a third experiment, plants were sprayed with a rate of 0.05 lb ai quizalofop acre^−1 at 18 days after planting and with 0.11 lb ai quizalofop acre^−1 at 32 days after planting.

[2] = test system: Pioneer 84G62 (herbicide susceptible control); experiment: Mode of inheritance greenhouse spray test, susceptible control; type: in vivo, sorghum; conditions: 0.045 lb ai fluazifop-P acre^-1 at 14 days after planting, n=3
Method: (§1) The mode of inheritance of herbicide tolerance was determined by planting seeds of Bol-71, F1 generation of cross ATx623×Bol-71, and Pioneer 84G62 (herbicide susceptible control) in flats containing MetroMix 360 potting soil in a greenhouse using a randomized complete block design (n=3). The plants were sprayed with 0.045 lb ai fluazifop-P acre^−1 at 14 days after planting. Pioneer 84G62 died between 12-16 days after spraying.

[3] = test system: F1 generation of cross ATx623×Bol-71; experiment: Mode of inheritance greenhouse spray test, F1 hybrid; type: in vivo, sorghum; conditions: 0.045 lb ai fluazifop-P acre^-1 at 14 days after planting, n=3
Method: as §1

Bol-71 = experiment: Mode of inheritance greenhouse spray test, wild parent; type: in vivo, sorghum; conditions: 0.045 lb ai fluazifop-P acre^-1 at 14 days after planting, n=3
Method: as §1

Structure (SMILES)	plant outcome after spraying ([1]; 0.12 lb ai fluazifop-P acre^-1 at 18 days and 0.36 lb ai acre^-1 at 32 days after planting)	time of plant death after spraying [2]	herbicide damage [3]	herbicide damage (Bol-71)	plant outcome after spraying ([1]; 0.05 lb ai quizalofop acre^-1 at 18 days and 0.11 lb ai acre^-1 at 32 days after planting)
C[C@@H](Oc1ccc(Oc2ccc(C(F)(F)F)cn2)cc1)C(=O)O [fluazifop-P]	died	12-16 days after spraying	no herbicide damage	no herbicide damage	–
CC(Oc1ccc(Oc2cnc3cc(Cl)ccc3n2)cc1)C(=O)O (centres unmarked) [quizalofop]	–	–	–	–	died
